Results: PubChem BioAssay AID1963421 (Molecular Pharmacology Branch, DTP, NCI, 2024)

Test system: 519858-162-T-J1-PDC complex spheroid growth, % test/control
Assay: Anticancer human tumor 519858-162-T-J1-PDC patient-derived colon adenocarcinoma cell line growth inhibition [Asc]
Details: for viability, T/C: stronger effect = lower value
In short: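 Tumor cells were grown as multicellular spheroids with stromal HUVEC and mesenchymal stem cells and treated singly or in combination. Concentrations fell in half-log steps from the clinical Cmax, or from 10 microM where none was known.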

[1] = curve of first compound, second compound 0.0316 µM
[2] = curve of first compound, second compound 0.1 µM
[3] = curve of first compound, second compound 0.316 µM
[4] = curve of first compound, second compound 1 µM
[5] = second compound 0.0316 µM, first compound 0.00316 µM
[6] = second compound 0.0316 µM, first compound 0.01 µM
[7] = second compound 0.0316 µM, first compound 0.0316 µM
[8] = second compound 0.0316 µM, first compound 0.1 µM
[9] = second compound 0.0316 µM, first compound 0.316 µM
[10] = second compound 0.0316 µM, first compound 1 µM
[11] = second compound 0.1 µM, first compound 0.00316 µM
[12] = second compound 0.1 µM, first compound 0.01 µM
[13] = second compound 0.1 µM, first compound 0.0316 µM
[14] = second compound 0.1 µM, first compound 0.1 µM
[15] = second compound 0.1 µM, first compound 0.316 µM
[16] = second compound 0.1 µM, first compound 1 µM
[17] = second compound 0.316 µM, first compound 0.00316 µM
[18] = second compound 0.316 µM, first compound 0.01 µM
[19] = second compound 0.316 µM, first compound 0.0316 µM
[20] = second compound 0.316 µM, first compound 0.1 µM
[21] = second compound 0.316 µM, first compound 0.316 µM
[22] = second compound 0.316 µM, first compound 1 µM
[23] = second compound 1 µM, first compound 0.00316 µM
[24] = second compound 1 µM, first compound 0.01 µM
[25] = second compound 1 µM, first compound 0.0316 µM
[26] = second compound 1 µM, first compound 0.1 µM
[27] = second compound 1 µM, first compound 0.316 µM
[28] = second compound 1 µM, first compound 1 µM
[29] = curve of first compound, second compound 3.16 µM
[30] = curve of first compound, second compound 10 µM
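Further: seven day drug exposure begun three days after spheroid seeding.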
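Wherever viability, T/C is given: 100% = DMSO vehicle wells and lower values mean less viable spheroid.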

SMILES: O=C(c1ccc(F)c(F)c1Nc1ccc(I)cc1F)N1CC(O)([C@@H]2CCCCN2)C1 + CNC(C)C(=O)NC1CN(S(=O)(=O)c2cccc(S(=O)(=O)N3CCC4CCC(C(=O)NC(c5ccccc5)c5ccccc5)N4C(=O)C(NC(=O)C(C)NC)C3)c2)CCC2CCC(C(=O)NC(c3ccccc3)c3ccccc3)N2C1=O
- IC50 (curve of first compound, second compound 0.00316 µM): 316 nM
- IC50 (curve of first compound, second compound 0.01 µM): 224 nM
- IC50 [1]: 284 nM
- IC50 [2]: 241 nM
- IC50 [3]: 254 nM
- IC50 [4]: 268 nM
- viability, T/C (second compound 0.00316 µM, first compound 0.00316 µM): 119%
- viability, T/C (second compound 0.00316 µM, first compound 0.01 µM): 133%
- viability, T/C (second compound 0.00316 µM, first compound 0.0316 µM): 95.9%
- viability, T/C (second compound 0.00316 µM, first compound 0.1 µM): 111%
- viability, T/C (second compound 0.00316 µM, first compound 0.316 µM): 49.7%
- viability, T/C (second compound 0.00316 µM, first compound 1 µM): 13.8%
- viability, T/C (second compound 0.01 µM, first compound 0.00316 µM): 93.9%
- viability, T/C (second compound 0.01 µM, first compound 0.01 µM): 112%
- viability, T/C (second compound 0.01 µM, first compound 0.0316 µM): 74.7%
- viability, T/C (second compound 0.01 µM, first compound 0.1 µM): 86.2%
- viability, T/C (second compound 0.01 µM, first compound 0.316 µM): 34.6%
- viability, T/C (second compound 0.01 µM, first compound 1 µM): 18.8%
- viability, T/C [5]: 121%
- viability, T/C [6]: 107%
- viability, T/C [7]: 79.7%
- viability, T/C [8]: 101%
- viability, T/C [9]: 44.2%
- viability, T/C [10]: 14.3%
- viability, T/C [11]: 99.4%
- viability, T/C [12]: 86.4%
- viability, T/C [13]: 107%
- viability, T/C [14]: 84.5%
- viability, T/C [15]: 39.2%
- viability, T/C [16]: 13.5%
- viability, T/C [17]: 80.6%
- viability, T/C [18]: 122%
- viability, T/C [19]: 86.8%
- viability, T/C [20]: 79.2%
- viability, T/C [21]: 43.5%
- viability, T/C [22]: 16%
- viability, T/C [23]: 77.5%
- viability, T/C [24]: 89.2%
- viability, T/C [25]: 117%
- viability, T/C [26]: 79.7%
- viability, T/C [27]: 45.4%
- viability, T/C [28]: 18.6%

SMILES: CCN1C(C(=O)NC23CCC(C(=O)O)(CC2)CC3)C(c2cccc(Cl)c2F)C2(C(=O)Nc3cc(Cl)ccc32)C12CCCCC2 (stereo not drawn)
- IC50 (compound alone, run of 11/07/2022): > 3000 nM
- IC50 (curve of compound): > 3000 nM

SMILES: NC(=O)C(=Cn1cnc(-c2cc(C(F)(F)F)cc(C(F)(F)F)c2)n1)c1cncnc1 + Cc1c(S(C)(=O)=O)c(-c2cc(F)cc(N3CCN(c4ccc(NS(=O)(=O)c5ccc(NC(CCN6CCC(C(=O)OCCCP(=O)(O)O)CC6)CSc6ccccc6)c(S(=O)(=O)C(F)(F)F)c5)cc4)CC3)c2)c(-c2ccc(Cl)cc2)n1C(C)C
- IC50 [1]: > 300 nM
- IC50 [2]: > 300 nM
- IC50 [3]: > 300 nM
- IC50 [4]: > 300 nM
- IC50 [29]: > 300 nM
- IC50 [30]: > 300 nM
- viability, T/C (second compound 0.0316 µM, first compound 0.000949 µM): 113%
- viability, T/C (second compound 0.0316 µM, first compound 0.003 µM): 101%
- viability, T/C (second compound 0.0316 µM, first compound 0.00949 µM): 87.4%
- viability, T/C (second compound 0.0316 µM, first compound 0.03 µM): 66%
- viability, T/C (second compound 0.0316 µM, first compound 0.0949 µM): 97.8%
- viability, T/C (second compound 0.0316 µM, first compound 0.3 µM): 88.3%
- viability, T/C (second compound 0.1 µM, first compound 0.000949 µM): 94.2%
- viability, T/C (second compound 0.1 µM, first compound 0.003 µM): 89.1%
- viability, T/C (second compound 0.1 µM, first compound 0.00949 µM): 93.7%
- viability, T/C (second compound 0.1 µM, first compound 0.03 µM): 78.3%
- viability, T/C (second compound 0.1 µM, first compound 0.0949 µM): 59.4%
- viability, T/C (second compound 0.1 µM, first compound 0.3 µM): 98.2%
- viability, T/C (second compound 0.316 µM, first compound 0.000949 µM): 97.4%
- viability, T/C (second compound 0.316 µM, first compound 0.003 µM): 86%
- viability, T/C (second compound 0.316 µM, first compound 0.00949 µM): 90.9%
- viability, T/C (second compound 0.316 µM, first compound 0.03 µM): 60.7%
- viability, T/C (second compound 0.316 µM, first compound 0.0949 µM): 82.7%
- viability, T/C (second compound 0.316 µM, first compound 0.3 µM): 74.9%
- viability, T/C (second compound 1 µM, first compound 0.000949 µM): 86.6%
- viability, T/C (second compound 1 µM, first compound 0.003 µM): 122%
- viability, T/C (second compound 1 µM, first compound 0.00949 µM): 65%
- viability, T/C (second compound 1 µM, first compound 0.03 µM): 83.5%
- viability, T/C (second compound 1 µM, first compound 0.0949 µM): 71.6%
- viability, T/C (second compound 1 µM, first compound 0.3 µM): 71.5%
- viability, T/C (second compound 3.16 µM, first compound 0.000949 µM): 79.8%
- viability, T/C (second compound 3.16 µM, first compound 0.003 µM): 79.2%
- viability, T/C (second compound 3.16 µM, first compound 0.00949 µM): 78.8%
- viability, T/C (second compound 3.16 µM, first compound 0.03 µM): 50.3%
- viability, T/C (second compound 3.16 µM, first compound 0.0949 µM): 54.6%
- viability, T/C (second compound 3.16 µM, first compound 0.3 µM): 79.8%
- viability, T/C (second compound 10 µM, first compound 0.000949 µM): 58.9%
- viability, T/C (second compound 10 µM, first compound 0.003 µM): 59.7%
- viability, T/C (second compound 10 µM, first compound 0.00949 µM): 71.2%
- viability, T/C (second compound 10 µM, first compound 0.03 µM): 76.3%
- viability, T/C (second compound 10 µM, first compound 0.0949 µM): 72.4%
- viability, T/C (second compound 10 µM, first compound 0.3 µM): 60.1%

SMILES: CCN1CCN(Cc2ccc(Nc3ncc(F)c(-c4cc(F)c5nc(C)n(C(C)C)c5c4)n3)nc2)CC1 + Cc1c(S(C)(=O)=O)c(-c2cc(F)cc(N3CCN(c4ccc(NS(=O)(=O)c5ccc(NC(CCN6CCC(C(=O)OCCCP(=O)(O)O)CC6)CSc6ccccc6)c(S(=O)(=O)C(F)(F)F)c5)cc4)CC3)c2)c(-c2ccc(Cl)cc2)n1C(C)C
- IC50 [1]: > 1000 nM
- IC50 [2]: > 1000 nM
- IC50 [3]: > 1000 nM
- IC50 [4]: > 1000 nM
- IC50 [29]: > 1000 nM
- IC50 [30]: > 1000 nM
- viability, T/C [5]: 124%
- viability, T/C [6]: 106%
- viability, T/C [7]: 62.9%
- viability, T/C [8]: 92%
- viability, T/C [9]: 84.8%
- viability, T/C [10]: 72.3%
- viability, T/C [11]: 109%
- viability, T/C [12]: 95.8%
- viability, T/C [13]: 89.2%
- viability, T/C [14]: 86.3%
- viability, T/C [15]: 79.5%
- viability, T/C [16]: 112%
- viability, T/C [17]: 119%
- viability, T/C [18]: 109%
- viability, T/C [19]: 98.3%
- viability, T/C [20]: 60.5%
- viability, T/C [21]: 95.6%
- viability, T/C [22]: 69.7%
- viability, T/C [23]: 87.4%
- viability, T/C [24]: 76%
- viability, T/C [25]: 62.6%
- viability, T/C [26]: 79%
- viability, T/C [27]: 75.2%
- viability, T/C [28]: 56.4%
- viability, T/C (second compound 3.16 µM, first compound 0.00316 µM): 90.5%
- viability, T/C (second compound 3.16 µM, first compound 0.01 µM): 68.6%
- viability, T/C (second compound 3.16 µM, first compound 0.0316 µM): 101%
- viability, T/C (second compound 3.16 µM, first compound 0.1 µM): 73.7%
- viability, T/C (second compound 3.16 µM, first compound 0.316 µM): 67%
- viability, T/C (second compound 3.16 µM, first compound 1 µM): 57.2%
- viability, T/C (second compound 10 µM, first compound 0.00316 µM): 77.7%
- viability, T/C (second compound 10 µM, first compound 0.01 µM): 61.1%
- viability, T/C (second compound 10 µM, first compound 0.0316 µM): 62.6%
- viability, T/C (second compound 10 µM, first compound 0.1 µM): 72.8%
- viability, T/C (second compound 10 µM, first compound 0.316 µM): 63.3%
- viability, T/C (second compound 10 µM, first compound 1 µM): 68%
